Assay results as given in patent publication US20240408088A1, “PYRAZOLE DERIVATIVE, AND PREPARATION METHOD THEREFOR AND USE THEREOF IN MEDICINE” (Abbisko Therapeutics Co., Ltd., priority 2021, published 2024).

tested on: HCT 116 MTAP knockout cells; assay: Human colon cancer HCT116 cell proliferation inhibition test (MTAP knockout cells, CellTiter-Glo, 6 days); assay type: cell-based; details: not given
Procedure: • 1. HCT 116 MTAP knockout and MTAP wild-type cells were plated in 96-well flat bottom 5 plates, and cultured overnight with McCoy's 5A medium containing […]+1% penicillin-streptomycin at 37° C. and 5% CO2. • 2. On the next day, the compound was dissolved with DMSO, diluted with DMSO and medium successively and transferred to the cell plate. The final concentration of the compound was 10 μM, the compound was diluted 4 times, with 9 concentration gradients, and DMSO control was added. • 3. Cells that have not been treated with the compound were removed. CellTiter-Glo Luminescent Cell Viability Assay (Promega) was used to detect cell viability, the operation was performed with reference to the package insert of the kit, and then the cell plate was placed on EnVision Multilabel Reader to detect the cold light signal. • 4. Meanwhile, the cell plate treated with the compound was cultured at 37° C. and 5% CO2 for 6 consecutive days. • 5. Then, CellTiter-Glo was also used to detect cell viability. • 6. Finally, the four-parameter dose-response curve module of GraphPad Prism v 9.2.0 software was used to plot the dose-response curve and calculate the IC50 for proliferation inhibition (unit: nM).

| SMILES | IC50 [µM] |
| --- | --- |
| Cn1ncc(-c2cc(C#N)c3c(=O)[nH]nc(CN)c3c2)c1-c1c(F)cc2ccccc2c1C#N (atropisomer, axis not shown; (M)) [Example 5, (M)-1-(aminomethyl)-7-(5-(1-cyano-3-fluoronaphthalen-2-yl)-1-methyl-1H-pyrazol-4-yl)-4-oxo-3,4-dihydrophthalazine-5-carbonitrile] | 0.016 |
| Cn1ncc(-c2cc(C#N)c3c(=O)[nH]nc(CN)c3c2)c1-c1c(F)cc2ccccc2c1C#N (atropisomer, axis not shown; (P)) [Example 4, (P)-1-(aminomethyl)-7-(5-(1-cyano-3-fluoronaphthalen-2-yl)-1-methyl-1H-pyrazol-4-yl)-4-oxo-3,4-dihydrophthalazine-5-carbonitrile] | 0.188 |

same assay, conditions: Homo sapiens, HCT-116, 144 h

| SMILES | IC50 [µM] |
| --- | --- |
| C#Cc1cc(-c2cnn(C)c2-c2c(F)c(Cl)cc(N3CCCC3)c2C#N)cc2c(CN)n[nH]c(=O)c12 [Example 10, 2-(4-(4-(aminomethyl)-8-ethynyl-1-oxo-1,2-dihydrophthalazin-6-yl)-1-methyl-1H-pyrazol-5-yl)-4-chloro-3-fluoro-6-(pyrrolidin-1-yl)benzonitrile] | 0.012 |
| Cn1ncc(-c2ccc3c(=O)[nH]nc(CN)c3c2)c1-c1c(F)c(Cl)cc(OC2CC(F)(F)C2)c1C#N [Example 37, 2-(4-(4-(aminomethyl)-1-oxo-1,2-dihydrophthalazin-6-yl)-1-methyl-1H-pyrazol-5-yl)-4-chloro-6-(3,3-difluorocyclobutoxy)-3-fluorobenzonitrile] | 0.133 |
| Cn1ncc(-c2cc(C3CC3)c3c(=O)[nH]nc(CN)c3c2)c1-c1c(F)c(Cl)cc(N2CCCC2)c1C#N [Example 11, 2-(4-(4-(aminomethyl)-8-cyclopropyl-1-oxo-1,2-dihydrophthalazin-6-yl)-1-methyl-1H-pyrazol-5-yl)-4-chloro-3-fluoro-6-(pyrrolidin-1-yl)benzonitrile] | 0.184 |
| CC1CCCN1c1cc(Cl)c(F)c(-c2c(-c3ccc4c(=O)[nH]nc(CN)c4c3)cnn2C)c1C#N (centres unmarked) [Example 20, 2-(4-(4-(aminomethyl)-1-oxo-1,2-dihydrophthalazin-6-yl)-1-methyl-1H-pyrazol-5-yl)-4-chloro-3-fluoro-6-(2-methylpyrrolidin-1-yl)benzonitrile] | 0.061 |
| Cn1ncc(-c2ccc3c(=O)[nH]nc(CN)c3c2)c1-c1c(F)c(N2CCOCC2)cc(OC2CC2)c1C#N [Example 15, 2-(4-(4-(aminomethyl)-1-oxo-1,2-dihydrophthalazin-6-yl)-1-methyl-1H-pyrazol-5-yl)-6-cyclopropoxy-3-fluoro-4-morpholinobenzonitrile] | 0.1 |
| Cn1ncc(-c2ccc3c(=O)[nH]nc(CN)c3c2)c1-c1c(F)c(Cl)cc(N2C3CCC2CC3)c1C#N [Example 21, 2-(4-(4-(aminomethyl)-1-oxo-1,2-dihydrophthalazin-6-yl)-1-methyl-1H-pyrazol-5-yl)-6-(7-azabicyclo[2.2.1]heptan-7-yl)-4-chloro-3-fluorobenzonitrile] | 0.161 |
| Cn1ncc(-c2ccc3c(=O)[nH]nc(CN)c3c2)c1-c1c(F)c(Cl)cc(N2CC(F)C2)c1C#N [Example 34, 2-(4-(4-(aminomethyl)-1-oxo-1,2-dihydrophthalazin-6-yl)-1-methyl-1H-pyrazol-5-yl)-4-chloro-3-fluoro-6-(3-fluoroazetidin-1-yl)benzonitrile] | 0.084 |
| CN(C)C1CN(c2cc(OC3CC3)c(C#N)c(-c3c(-c4ccc5c(=O)[nH]nc(CN)c5c4)cnn3C)c2F)C1 [Example 24, 2-(4-(4-(aminomethyl)-1-oxo-1,2-dihydrophthalazin-6-yl)-1-methyl-1H-pyrazol-5-yl)-6-cyclopropoxy-4-(3-(dimethylamino)azetidin-1-yl)-3-fluorobenzonitrile] | 0.229 |
| Cn1ncc(-c2ccc3c(=O)[nH]nc(CN)c3c2)c1-c1c(F)c(Cl)cc(N2CC3(C2)CC(F)(F)C3)c1C#N [Example 31, 2-(4-(4-(aminomethyl)-1-oxo-1,2-dihydrophthalazin-6-yl)-1-methyl-1H-pyrazol-5-yl)-4-chloro-6-(6,6-difluoro-2-azaspiro[3.3]heptan-2-yl)-3-fluorobenzonitrile] | 0.093 |
| CN(C)C1CCN(c2cc(OC3CC3)c(C#N)c(-c3c(-c4ccc5c(=O)[nH]nc(CN)c5c4)cnn3C)c2F)C1 (centres unmarked) [Example 27, 2-(4-(4-(aminomethyl)-1-oxo-1,2-dihydrophthalazin-6-yl)-1-methyl-1H-pyrazol-5-yl)-6-cyclopropoxy-4-(3-(dimethylamino)pyrrolidin-1-yl)-3-fluorobenzonitrile] | 0.262 |
| Cn1ncc(-c2ccc3c(=O)[nH]nc(CN)c3c2)c1-c1c(F)c(Cl)cc(N2CCCCC2)c1C#N [Example 22, 2-(4-(4-(aminomethyl)-1-oxo-1,2-dihydrophthalazin-6-yl)-1-methyl-1H-pyrazol-5-yl)-4-chloro-3-fluoro-6-(piperidin-1-yl)benzonitrile] | 0.116 |
| Cn1ncc(-c2ccc3c(=O)[nH]nc(CN)c3c2)c1-c1c(F)c(N2CCC2)cc(OC2CC2)c1C#N [Example 17, 2-(4-(4-(aminomethyl)-1-oxo-1,2-dihydrophthalazin-6-yl)-1-methyl-1H-pyrazol-5-yl)-4-(azetidin-1-yl)-6-cyclopropoxy-3-fluorobenzonitrile] | 0.113 |
| Cn1ncc(-c2ccc3c(=O)[nH]nc(CN)c3c2)c1-c1c(F)c(Cl)cc(N2CCC3(CC2)CC3(F)F)c1C#N [Example 33, 2-(4-(4-(aminomethyl)-1-oxo-1,2-dihydrophthalazin-6-yl)-1-methyl-1H-pyrazol-5-yl)-4-chloro-6-(1,1-difluoro-6-azaspiro[2.5]octan-6-yl)-3-fluorobenzonitrile] | 0.057 |
| C#Cc1cc(-c2cnn(C)c2-c2c(F)c(Cl)cc(OC3CC3)c2C#N)cc2c(CN)n[nH]c(=O)c12 [Example 7, 2-(4-(4-(aminomethyl)-8-ethynyl-1-oxo-1,2-dihydrophthalazin-6-yl)-1-methyl-1H-pyrazol-5-yl)-4-chloro-6-cyclopropoxy-3-fluorobenzonitrile] | 0.027 |
| Cn1ncc(-c2ccc3c(=O)[nH]nc(CN)c3c2)c1-c1c(F)c(Cl)cc(N2CCC2)c1C#N [Example 32, 2-(4-(4-(aminomethyl)-1-oxo-1,2-dihydrophthalazin-6-yl)-1-methyl-1H-pyrazol-5-yl)-6-(azetidin-1-yl)-4-chloro-3-fluorobenzonitrile] | 0.057 |
| Cn1ncc(-c2ccc3c(=O)[nH]nc(CN)c3c2)c1-c1c(F)c(Cl)cc(N2CC(C)(O)C2)c1C#N [Example 35, 2-(4-(4-(aminomethyl)-1-oxo-1,2-dihydrophthalazin-6-yl)-1-methyl-1H-pyrazol-5-yl)-4-chloro-3-fluoro-6-(3-hydroxy-3-methylazetidin-1-yl)benzonitrile] | 0.922 |
| Cn1ncc(-c2ccc3c(=O)[nH]nc(CN)c3c2)c1-c1c(F)c(N2CCC(O)C2)cc(OC2CC2)c1C#N (centres unmarked) [Example 25, 2-(4-(4-(aminomethyl)-1-oxo-1,2-dihydrophthalazin-6-yl)-1-methyl-1H-pyrazol-5-yl)-6-cyclopropoxy-3-fluoro-4-(3-hydroxypyrrolidin-1-yl)benzonitrile] | 0.567 |
| Cn1ncc(-c2cnc3c(=O)[nH]nc(CN)c3c2)c1-c1c(F)cc2ccccc2c1C#N [Example 12, 2-(4-(5-(aminomethyl)-8-oxo-7,8-dihydropyrido[2,3-d]pyridazin-3-yl)-1-methyl-1H-pyrazol-5-yl)-3-fluoro-1-naphthalenenitrile] | 1.97 |
